{
  "source": "patent US11446312B2",
  "about": "“Compounds that modulate von Willebrand factor levels and their use in the treatment of blood disorders” (SOCIETE DES PRODUITS NESTLE S.A., priority 2018, dated 2022)",
  "tested_on": "vWF",
  "assay": "Cultured Human Endothelial Cell vWF Expression Assay",
  "type": "cell-based",
  "details": "human iPSC-derived endothelial cells, 24h treatment, immunofluorescence intensity, vs DMSO control",
  "protocol": "Human induced-pluripotent stem cell derived endothelial cells and accompanying growth media were purchased from Cellular Dynamics International. ECs were cultured according to the manufacturer's protocol (Cellular Dynamics International). ECs were plated at a density of 10′000-15′000 cells/cm^2 in culture vessels which have been coated with fibronectin (Invitrogen) and maintained in a low oxygen incubator (37° C., 5% CO2, 5% O2). The EC maintenance media was exchanged every other day and comprised of VascuLife Basal medium +VascuLife VEGF medium complete kit (Lifeline Cell Technologies). For all experiments ECs of passage 0 or 1 were used. The Celastrol used was a synthetic organic chemical manufactured in the United States and purchased from Novus (catalog reference number NBP2-29362). vWF primary antibody was obtained from Abcam (ab6994), tubulin primary antibody was obtained from Abcam (ab7291), and the secondary antibodies were Alexa fluor (anti-mouse and anti-rabbit) obtained from Thermo Fisher Scientific.\nEndothelial cells were plated into 96-well glass-bottom plates at a density of 10,000 cells per well. […] Quantification of the fluorescence intensity (which is indicative of protein levels) was performed using the MetaXpress software. […]\nThe figure (FIG. 1) depicts the quantification of the data for human endothelial cells treated with celastrol as described above. […]",
  "data": [
    {"compound": "CC1=C(O)C(=O)C=C2C1=CC=C1[C@@]2(C)CC[C@@]2(C)[C@@H]3C[C@](C)(C(=O)O)CC[C@]3(C)CC[C@]12C", "note": "[Celastrol, 10-Hydroxy-2,4a,6a,9,12b,14a-hexamethyl-11-oxo-1,2,3,4,4a,5,6,6a,11,12b,13,14,14a,14b-tetradecahydro-picene-2-carboxylic acid]", "values": [
      {"measurement": "vWF protein expression (normalized by the expression of tubulin)", "setting": "1 μM celastrol", "result": "significantly (***p<0.001) reduces vWF protein expression"},
      {"measurement": "vWF protein expression (normalized by the expression of tubulin)", "setting": "10 μM celastrol", "result": "significantly (***p<0.001) reduces vWF protein expression"}
    ]}
  ]
}
